Data published in patent US20250170265A1 (priority 2023, published 2025).
pEC50, pIC50: −log10 of the molar value. Several values for one entry are separate records, joined by “and”; a condition that tells them apart may be missing. Equal values may be shown once. Read-outs that look alike come from different tables or passages of the source.

Tests used:
[1] = tested on: supercoiled pBR322 plasmid DNA; type: biochemical
[2] = tested on: linearized (EcoRV-HF-digested) pBR322 double stranded DNA
[3] = tested on: supercoiled pBR322 plasmid DNA
[4] = tested on: supercoiled pBR322 plasmid DNA; details: read-out: EC50 value
[5] = tested on: supercoiled pBR322 plasmid DNA; details: for pEC50: 525 nm
pBR322 = type: biochemical
[6] = Stability of diazonium compounds (NMR in D2O with acetonitrile internal standard); type: physicochemical

Description for HeLa cells: General cell culture protocol: HeLa cells were grown in DMEM growth media (GIBCO 11995065) with 10% FBS (GIBCO A5670401) in 75 cm^2 surface treated culture dishes (Fisherbrand FB012937) and were incubated in a cell culture chamber (37° C. with 5% CO2). Cells were kept at a maximum confluency of 80% and passaged up to 20 times. For each passage, the cells were washed with 1×PBS (GIBCO 20012027), detached from the plate by incubation with 0.25% Trypsin-EDTA (GIBCO 25200072) for 3-4 minutes in the cell culture chamber, and then diluted with growth media. The cells were spun down at 300×g at 4° C. for 5 minutes, resuspended with fresh growth media, and replated in a new flask.
Cell viability assay and IC50 procedure: The media in the cell culture dish was aspirated, and the cells were washed with 1×PBS. The cells were detached from the plate by 4-minute incubation with 0.25% Trypsin-EDTA in the cell culture chamber. The cells were then diluted with DMEM and were spun down at 300×g at 4° C. for 5 minutes. The media was aspirated, and the cell pellet was resuspended in fresh DMEM. The cells were counted and seeded in 6-well culture plates at 50,000 cells/well and incubated overnight. Alongside the 6-well plates, 35 mm glass bottom confocal plates (Fisher Scientific NC0409658) were also seeded with 50,000 cells/plate. 24 hours after the initial seeding, the media in the plates were aspirated and the cells were washed with 1×PBS. […] The wash buffer was aspirated from the plates and 2 mL of the corresponding diazonium dilutions was added to the respective wells in the 6-well plates, all in triplicate, in addition to the confocal plates. All plates were incubated in ambient light for 45 minutes in the cell culture hood and then for 1 hour in the cell culture chamber (37° C. with 5% CO2). Control wells with 2 mL 1×PBS pH 6.6 alone with no diazonium as well as additional control wells with 2 mL DMEM alone with no diazonium, all in triplicate, were also incubated alongside the wells with the diazonium solutions. The plates were then removed from the incubators and the solutions from all the dishes were aspirated and replaced with 2 mL of fresh DMEM. The plates were incubated in the cell culture chamber for 3 days. After the 3-day incubation, the respective cell viability of each well was measured using the PrestoBlue™ Cell Viability Procedure. To each well was added 200 μL of 10× PrestoBlue™ Cell Viability Reagent (ThermoFisher Scientific A13261) and the plates were then incubated in the cell culture chamber for 3 hours. The plates were then analyzed using a plate reader (SpectraMax iD5) by measuring the fluorescence at an excitation of 560 nm and emission of 590 nm. […]

(S)-[1,1′-binaphthalene]-2,2′-bisdiazonium tetrafluoroborate [Compound 24]
pEC50 ([1]; read-out: EC50 value): 6.85

tetrakis(benzene-4-diazonium)methane tetrafluoroborate [Compound 28]
concentrations giving noticeable cleavage into low molecular weight fragments ([2]; pre-linearized pBR322 (Form III, 40 μM/bp), 525 nm light in water for 1 hour): ≥ 100 nM
pEC50 ([2]; read-out: EC50 value, linearized pBR322, green light 525 nm, supercoiled pBR322 as internal standard): 6.90
pEC50 ([3]; read-out: DNA cleavage EC50 value, in the dark without cysteine): 6.01 and ~6.00 and 6.00
pEC50 ([3]; read-out: EC50 value, presence of cysteine in the dark): 7.51
pEC50 [4]: 8.44 and 7.86 and 7.83
decrease in activity, degassed vs standard deionized water [5]: 2 log scale
pEC50 ([5]; degassed deionized water): 6.76
pEC50 ([5]; standard deionized water, run alongside as control): 8.79
DNA cleavage potency (in words) [1]: excellent potency
EC50 [1]: 0.00214 µg/mL
pEC50 ([1]; read-out: EC50 value): 8.56
plate confluency after 3 days (HeLa cells; 1.25 μM): over 90%
plate confluency after 3 days (HeLa cells; 10 μM): less than 10%
IC50 (cell viability) (HeLa cells; ambient light 45 min then 1 h at 37° C., 3-day incubation): 5.23 µg/mL
pIC50 (HeLa cells; read-out: IC50 (cell viability), ambient light 45 min then 1 h at 37° C., 3-day incubation): 5.17

benzophenone-3,3′-bisdiazonium tetrafluoroborate [Compound 18]
pEC50 ([1]; read-out: EC50 value): 7.50

N^1,N^3,N^5-tris(benzene-4-diazonium)benzene-1,3,5-tricarboxamide tetrafluoroborate [Compound 29]
DNA cleavage potency (in words) [1]: no notable improvement
pEC50 ([1]; read-out: EC50 value): 7.00

F[B-](F)(F)F.N#[N+]c1ccccc1 [Compound 1, benzenediazonium tetrafluoroborate]
DNA cleavage potency (in words) [1]: limited activity
pEC50 ([1]; read-out: EC50): 4.73

Nc1cccc2c(N)cccc12 [1,5-diaminonaphthalene, reference compound]
cleavage of pBR322 (gel pattern) (pBR322): no cleavage was observed

tetrakis(benzene-4-diazonium)ethylene tetrafluoroborate [Compound 27]
DNA cleavage potency (in words) [1]: excellent potency
pEC50 ([1]; read-out: EC50 value): 7.48

(R)-[1,1′-binaphthalene]-2,2′-bisdiazonium tetrafluoroborate [Compound 23]
pEC50 ([1]; read-out: EC50 value): 7.38

benzophenone-4,4′-bisdiazonium tetrafluoroborate [Compound 17]
pEC50 ([1]; read-out: EC50 value): 7.62

ethidium bisdiazonium tetrafluoroborate [Compound 26]
DNA cleavage potency (in words) [1]: only modest potency
pEC50 ([1]; read-out: EC50 value): 6.87

F[B-](F)(F)F.F[B-](F)(F)F.N#[N+]c1cccc2c([N+]#N)cccc12 [Compound 10, naphthalene-1,5-bisdiazonium tetrafluoroborate]
diazonium/IS ratio ([6]; 1 hour): 0.59
diazonium/IS ratio ([6]; 2 hours): 0.56
diazonium/IS ratio ([6]; 6 hours): 0.49
diazonium/IS ratio ([6]; 24 hours): 0.41
diazonium/IS ratio ([6]; T0 (immediately after sample preparation)): 0.62
pEC50 ([1]; read-out: EC50 value): 7.50
cleavage of pBR322 (gel pattern) (pBR322; 500 nM, 525 nm irradiation 1.5 hours): two new bands

COc1ccc([N+]#N)cc1.F[B-](F)(F)F [Compound 5, 4-methoxy-benzene-1-diazonium tetrafluoroborate]
pEC50 ([1]; read-out: EC50 value): 4.16

N#[N+]c1ccc([N+](=O)[O-])c2ccccc12 [Compound 7, 4-nitro-naphthalene-1-diazonium tetrafluoroborate]
pEC50 ([1]; read-out: EC50 value): 6.27
